The record followed here is patent US9061006B2, “Compositions and methods for diagnosing and treating phenylketonuria (PKU)” (Ramot at Tel-Aviv University Ltd., priority 2011, dated 2015).

Holding throughout (type): cell-based
Data set [1] is described as follows: MTT cell viability assay, PC12 cell line. The conditions noted are these: rat, PC12 cells. As to the method: (§1) Cell cytotoxicity experiments—CHO cells (2×10^5 cells/mL) were cultured in 96-well micro plates (100 μL/well) and incubated overnight at 37° C. 100 μL of phenylalanine was added to each well dissolved in Dulbecco's Modified Eagle Medium (DMEM) (Beit Haemek, Israel) at various concentrations. Each experiment was repeated 3 times. Following incubation for 6 hours at 37° C., cell viability was evaluated using the 3-(4,5-dimethylthiazolyl-2)-2,5-diphenyltetrazolium bromide (MTT) assay. Briefly, 20 μL of 5 mg/mL MTT dissolved in PBS was added to each well. After 4 hours incubation at 37° C., 100 μL of extraction buffer [20% SDS dissolved in a solution of 50% dimethylformamide and 50% DDW (pH 4.7)] was added to each well, and the plates were incubated again overnight at 37° C. Finally, color intensity was measured using an ELISA reader at 570 nm.
(§2) The present inventors next examined whether, like many amyloid structures, phenylalanine assemblies have a cytotoxic effect. This was examined in a physiological range of concentration, similar to that detected in untreated PKU patients. We performed in vitro cellular viability experiments. To this end, elevated concentrations of phenylalanine ranging from 0.1 μM to 15 mM were added to […] cultured PC12 cells. […] In the presence of 1.8 mM phenylalanine, PC12 cell viability was decreased to approximately 80%. […] In the presence of 6 mM phenylalanine, CHO cell viability was decreased to 84%. Moreover, the viability of the cells in the presence of phenylalanine at concentration of 12 mM was lower than 40% (FIG. 2A). The present assay is performed at much shorter time scales than those of disease progression and this may account for the slightly elevated concentrations than those typically found at PKU patients. It is also possible that such high concentrations of phenylalanine occur pathologically in PKU patients due to transient local high concentration in the brain. […] The present inventors further assessed the influence of the phenylalanine fibrils on the CHO cells using scanning electron microscope.
In general terms: Tetrazolium dyes change colour on reduction, which living cells bring about.

Data set [2] in a line: MTT cell viability assay, CHO cell line. The note with it: Chinese hamster, CHO cells. The protocol: as §1
Data set [3] is described as follows: Immuno precipitation and cell cytotoxicity experiments (MTT). The note with it: Chinese hamster, prior to IP, CHO cells. The protocol:
as §1
Immuno precipitation and cell cytotoxicity experiments—Phenylalanine solution at concentration of 7.5, 1.87, 0.46, 0.11 were either incubated with CHO cell or immuno-precipitate and then the solutions, without the fibrils, were incubated with CHO cell according to cell cytotoxicity experiments detailed above. Samples were immuno-precipitated with anti-phenylalanine fibrils antibodies (1:10) over night at 4° C. (previously purified on protein A column, in PBS+2% BSA).

For data set [4], the system named is CHO cells. The data set can be described thus: Scanning electron microscopy imaging of CHO cells. The conditions noted are these: incubation with phenylalanine fibrils 6 hour, SEM. The protocol:
Scanning electron microscopy imaging of CHO cells—CHO cell were cultured on glass cover slips located in 24-well micro plates, then incubated with various concentration of phenylalanine fibrils for 6 hour at 37° C., as described in the cell cytotoxicity experiments section. The cell were fixated on the glass cover slip with 2.5% glutaraldehyde, then dehydrated and coated with gold. Scanning electron microscopy images were made using a JSM JEOL 840A SEM operating at 5 kV.

In data set [5] the test system is PC12 cells. The data set can be described thus: MTT cell viability assay, PC12 cell line. The note with it: negative control amino acid, increasing amount. The protocol:
as §1, §2

As for `N[C@@H](Cc1ccccc1)C(=O)O` [phenylalanine], in data set [1] (1.8 mM phenylalanine), the viability (usually the share of living cells, or the viability signal relative to a control) at 1.8 mM was around 80%. This molecule also had a viability at 7.5 mM in data set [1] (7.5 mM phenylalanine) of around 65%. This molecule registered a viability at 6 h, 6 mM in data set [2] (6 mM phenylalanine) of 84%. This molecule gave a viability at 6 h, 12 mM in data set [2] (12 mM phenylalanine) below 40%. This molecule yielded a viability at 6 h, 1.87 mM in data set [3] (1.87 mM phenylalanine assemblies) of 56%. Further, the viability at 6 h, 7.5 mM in data set [3] (7.5 mM phenylalanine assemblies) was 44%. For the same molecule, the CHO cell morphology result in data set [4] was “smaller and rounded”. In data set [4] (compared to untreated cells), the CHO cell density entry is “very low density”.
As for `C[C@H](N)C(=O)O` [Alanine, reference compound], the “toxic effect (cytotoxicity)” value in data set [5] is recorded as “did not demonstrate a toxic effect”.
